# Results as given in patent US12643903B2, “Bifunctional compounds for degradation of EGFR and related methods of use” (BeiGene, Ltd., priority 2020, dated 2026).
# Experiments:
# Assay type in all cases: cell-based
# Settings in all cases: 16 h treatment, EGFR degradation by HTRF
# [1] = target: T1, EGFR (Homo sapiens, UniProt P00533, DEL746-750); assay: Cell Degradation 2: EGFR degradation in HCC827 cells, HTRF assay
# T1 construct: endogenous in cells; host or cells: HCC827
# Procedure, shortened: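 Compound-treated HCC827 cells were lysed after 16 h and EGFR measured by HTRF (337 nm excitation, 665/620 nm emission) after overnight antibody incubation at room temperature. DC50 came from a four-parameter fit of percent inhibition against compound concentration.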
# [2] = target: T2, EGFR (Homo sapiens, UniProt P00533, L858R/T790M); assay: Cell Degradation 1: EGFR degradation in H1975 cells, HTRF assay
# T2 construct: endogenous in cells; host or cells: H1975
# T2 sequence (P00533 25-1210 T790M/L858R): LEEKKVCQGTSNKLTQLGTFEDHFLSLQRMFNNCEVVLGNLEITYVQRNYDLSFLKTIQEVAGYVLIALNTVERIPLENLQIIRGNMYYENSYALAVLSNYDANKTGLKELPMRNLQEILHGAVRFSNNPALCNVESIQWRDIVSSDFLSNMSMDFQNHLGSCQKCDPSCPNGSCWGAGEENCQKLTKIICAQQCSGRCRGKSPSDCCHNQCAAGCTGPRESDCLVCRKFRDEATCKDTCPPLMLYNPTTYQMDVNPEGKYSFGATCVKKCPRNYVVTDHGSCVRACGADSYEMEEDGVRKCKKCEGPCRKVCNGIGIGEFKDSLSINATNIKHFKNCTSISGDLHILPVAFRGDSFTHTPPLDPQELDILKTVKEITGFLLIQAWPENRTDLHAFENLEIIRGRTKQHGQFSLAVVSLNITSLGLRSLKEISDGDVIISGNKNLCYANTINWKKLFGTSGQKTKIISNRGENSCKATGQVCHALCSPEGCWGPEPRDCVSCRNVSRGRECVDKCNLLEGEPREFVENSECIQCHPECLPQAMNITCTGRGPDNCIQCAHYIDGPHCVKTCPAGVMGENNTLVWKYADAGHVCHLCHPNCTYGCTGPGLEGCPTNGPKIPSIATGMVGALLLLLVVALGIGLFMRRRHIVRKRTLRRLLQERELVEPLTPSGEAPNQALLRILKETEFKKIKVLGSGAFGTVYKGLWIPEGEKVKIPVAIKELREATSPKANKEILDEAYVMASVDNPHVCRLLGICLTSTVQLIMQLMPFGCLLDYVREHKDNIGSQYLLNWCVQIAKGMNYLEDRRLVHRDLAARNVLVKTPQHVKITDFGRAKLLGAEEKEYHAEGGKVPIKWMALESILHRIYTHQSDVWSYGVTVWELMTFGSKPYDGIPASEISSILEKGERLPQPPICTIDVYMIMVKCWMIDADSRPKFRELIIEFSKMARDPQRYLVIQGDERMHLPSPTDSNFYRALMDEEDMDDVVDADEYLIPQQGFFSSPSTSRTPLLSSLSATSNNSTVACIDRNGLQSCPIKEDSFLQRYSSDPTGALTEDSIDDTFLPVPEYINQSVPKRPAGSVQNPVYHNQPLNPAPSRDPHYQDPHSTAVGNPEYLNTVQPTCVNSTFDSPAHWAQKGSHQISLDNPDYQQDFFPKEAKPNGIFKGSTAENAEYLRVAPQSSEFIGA
# Procedure, shortened: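 H1975 cells treated with compound for 16 h, lysed 1 h at room temperature. EGFR measured by HTRF after overnight antibody incubation (665/620 nm). DC50 from four-parameter logistic fit of percent inhibition against concentration.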
# [3] = target: T3, EGFR LTC (Homo sapiens, UniProt P00533, C797S/L858R/T790M); assay: Cell Degradation 3: EGFR degradation in BaF3 cells (LTC), HTRF assay
# T3 construct: expressed in transfected cells; host or cells: BaF3
# T3 sequence (P00533 25-1210 T790M/C797S/L858R): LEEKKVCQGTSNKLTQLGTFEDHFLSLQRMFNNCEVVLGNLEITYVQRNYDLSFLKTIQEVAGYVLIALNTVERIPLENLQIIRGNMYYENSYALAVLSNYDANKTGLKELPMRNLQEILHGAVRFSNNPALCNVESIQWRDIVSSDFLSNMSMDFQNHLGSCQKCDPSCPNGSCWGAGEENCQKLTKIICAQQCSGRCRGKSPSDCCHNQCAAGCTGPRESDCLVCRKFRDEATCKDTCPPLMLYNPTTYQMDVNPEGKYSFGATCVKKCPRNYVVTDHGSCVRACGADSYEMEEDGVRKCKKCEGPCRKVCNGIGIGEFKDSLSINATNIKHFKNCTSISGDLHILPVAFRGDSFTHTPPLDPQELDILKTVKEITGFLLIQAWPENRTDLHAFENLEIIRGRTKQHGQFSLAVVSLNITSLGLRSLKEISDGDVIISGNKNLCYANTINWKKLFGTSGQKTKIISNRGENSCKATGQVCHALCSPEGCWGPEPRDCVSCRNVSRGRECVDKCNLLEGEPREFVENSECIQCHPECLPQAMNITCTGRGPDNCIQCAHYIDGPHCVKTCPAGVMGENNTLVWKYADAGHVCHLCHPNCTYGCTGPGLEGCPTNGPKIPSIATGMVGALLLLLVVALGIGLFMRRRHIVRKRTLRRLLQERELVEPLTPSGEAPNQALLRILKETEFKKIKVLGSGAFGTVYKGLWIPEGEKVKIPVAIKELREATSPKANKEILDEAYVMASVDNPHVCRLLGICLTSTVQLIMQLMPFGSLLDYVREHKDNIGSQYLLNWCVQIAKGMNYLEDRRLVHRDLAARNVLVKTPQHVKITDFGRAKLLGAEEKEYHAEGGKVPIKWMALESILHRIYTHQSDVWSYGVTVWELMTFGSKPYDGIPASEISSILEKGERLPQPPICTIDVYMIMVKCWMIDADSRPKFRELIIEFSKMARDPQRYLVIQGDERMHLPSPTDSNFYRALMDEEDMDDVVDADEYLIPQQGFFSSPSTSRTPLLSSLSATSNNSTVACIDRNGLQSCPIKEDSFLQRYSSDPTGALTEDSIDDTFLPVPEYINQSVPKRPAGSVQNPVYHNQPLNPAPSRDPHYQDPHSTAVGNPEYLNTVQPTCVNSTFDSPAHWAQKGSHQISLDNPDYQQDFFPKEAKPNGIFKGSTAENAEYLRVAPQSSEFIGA
# Procedure: Cell Degradation 3 Cell Treatment
# BaF3 cells are treated with compounds diluted in 0.2% DMSO, dilution is done according to the following protocol: (1) make 500× stock solution in DMSO from 5 mM by 4-fold dilution, total 8 doses were included; (2) make 2× solution in cell culture medium by transferring 0.5 μl 500× stock solution into 125 μl medium; (3) 30 μl of 2× solution is added to cells and incubate for 16 h.
# After 16 h treatment, add 20 μl 4×lysis buffer to each well; seal the plate and incubate 1 hour at room temperature on a plate shaker; Once the cells are lysed, 16 μL of cell lysate are transferred to a PE 384-well HTRF detection plate (for triple mutant cells, the lysate were diluted by the qual volume 1×lysis buffer before transfer); 4 μL of pre-mixed HTRF antibodies are added to each well; Cover the plate with a plate sealer, spin 1000 rpm for 1 min, Incubate overnight at room temperature; Read on BMG PheraStar with HTRF protocol (337 nm-665 nm-620 nm).
# The IC50 (DC50) value of a compound can be obtained by fitting the following equation Y=Bottom+(TOP−Bottom)/(1+((IC50/X)^hillslope))
# Wherein, X and Y are known values, and IC50, Hillslope, Top and Bottom are the parameters obtained by fitting with software. Y is the inhibition percentage (calculated from the equation), X is the concentration of the compound; IC50 is the concentration of the compound when the 50% inhibition is reached. The smaller the IC50 value is, the stronger the inhibitory ability of the compound is. Vice versa, the higher the IC50 value is, the weaker the ability the inhibitory ability of the compound is; Hillslope represents the slope of the fitted curve, generally around 1*; Bottom represents the minimum value of the curve obtained by data fitting, which is generally 0%±20%; Top represents the maximum value of the curve obtained by data fitting, which is generally 100%±20%. The experimental data were fitted by calculating and analyzing with Dotmatics data analysis software.
# T1 sequence (P00533 with tags, fused parts or gaps DEL746-750): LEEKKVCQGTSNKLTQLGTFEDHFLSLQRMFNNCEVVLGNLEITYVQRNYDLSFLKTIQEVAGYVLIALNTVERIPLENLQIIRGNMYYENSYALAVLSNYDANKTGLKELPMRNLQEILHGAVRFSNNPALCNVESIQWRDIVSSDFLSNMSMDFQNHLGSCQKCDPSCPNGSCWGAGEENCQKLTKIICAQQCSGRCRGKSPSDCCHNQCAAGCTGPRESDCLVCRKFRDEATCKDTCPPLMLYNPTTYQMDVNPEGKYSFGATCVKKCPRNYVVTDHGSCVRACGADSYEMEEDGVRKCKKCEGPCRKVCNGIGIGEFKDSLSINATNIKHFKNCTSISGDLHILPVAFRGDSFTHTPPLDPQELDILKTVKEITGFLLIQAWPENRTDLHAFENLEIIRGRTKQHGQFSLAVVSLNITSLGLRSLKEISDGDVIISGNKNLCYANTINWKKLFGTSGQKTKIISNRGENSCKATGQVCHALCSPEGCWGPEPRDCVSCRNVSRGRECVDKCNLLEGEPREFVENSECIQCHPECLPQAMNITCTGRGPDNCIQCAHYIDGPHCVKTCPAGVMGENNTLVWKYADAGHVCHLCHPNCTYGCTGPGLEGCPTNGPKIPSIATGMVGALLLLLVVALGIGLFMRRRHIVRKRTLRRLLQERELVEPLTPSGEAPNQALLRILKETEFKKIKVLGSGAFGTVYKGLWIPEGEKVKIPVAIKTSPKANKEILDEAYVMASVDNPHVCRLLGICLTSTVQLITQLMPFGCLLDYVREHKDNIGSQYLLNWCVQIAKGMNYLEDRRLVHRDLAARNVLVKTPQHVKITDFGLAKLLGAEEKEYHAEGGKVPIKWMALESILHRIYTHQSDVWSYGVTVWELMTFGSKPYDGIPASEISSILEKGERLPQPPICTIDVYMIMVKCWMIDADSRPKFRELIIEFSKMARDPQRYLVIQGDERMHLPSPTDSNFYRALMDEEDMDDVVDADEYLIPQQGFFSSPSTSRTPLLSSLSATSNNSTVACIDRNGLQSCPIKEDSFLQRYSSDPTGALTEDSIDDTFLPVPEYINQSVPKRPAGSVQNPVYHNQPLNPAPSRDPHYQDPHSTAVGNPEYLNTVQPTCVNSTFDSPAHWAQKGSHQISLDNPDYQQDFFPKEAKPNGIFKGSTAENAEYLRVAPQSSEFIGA
# T1 sequence (Q96SW2 whole entry partner): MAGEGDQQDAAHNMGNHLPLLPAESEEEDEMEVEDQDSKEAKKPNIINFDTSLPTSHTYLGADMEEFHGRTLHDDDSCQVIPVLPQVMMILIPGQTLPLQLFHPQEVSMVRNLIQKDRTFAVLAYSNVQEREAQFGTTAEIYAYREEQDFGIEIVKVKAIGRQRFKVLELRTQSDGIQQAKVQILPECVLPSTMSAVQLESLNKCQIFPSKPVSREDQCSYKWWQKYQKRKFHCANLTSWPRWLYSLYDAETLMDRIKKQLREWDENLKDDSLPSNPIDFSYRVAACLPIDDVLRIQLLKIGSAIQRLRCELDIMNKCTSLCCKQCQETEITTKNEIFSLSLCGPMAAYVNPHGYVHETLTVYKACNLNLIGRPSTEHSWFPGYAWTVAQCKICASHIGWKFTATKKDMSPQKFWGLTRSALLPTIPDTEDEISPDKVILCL
SMILES,DC50 [1] [nM],DC50 [2] [nM],DC50 [3] [nM]
"COc1cc(N2CCC(N3CCN(CCC4CN(c5ccc(C6CCC(=O)NC6=O)cc5)C4)CC3)CC2)ccc1Nc1ncc(Cl)c(Nc2cccc3c2N(S(C)(=O)=O)CC3)n1 (stereo not drawn) [Example 84, 3-(4-(3-(2-(4-(1-(4-((5-chloro-4-((1-(methylsulfonyl)indolin-7-yl)amino)pyrimidin-2-yl)amino)-3-methoxyphenyl)piperidin-4-yl)piperazin-1-yl)ethyl)azetidin-1-yl)phenyl)piperidine-2,6-dione]",1980,> 10000,–
"COc1cc(N2CCC(N3CCN(CCC4CCN(c5ccc(C6CCC(=O)NC6=O)c(F)c5)CC4)CC3)CC2)c(C)cc1Nc1ncc(Br)c(Nc2cccc3c2N(S(C)(=O)=O)CC3)n1 (stereo not drawn) [Example 90, 3-(4-(4-(2-(4-(1-(4-((5-bromo-4-((1-(methylsulfonyl)indolin-7-yl)amino)pyrimidin-2-yl)amino)-5-methoxy-2-methylphenyl)piperidin-4-yl)piperazin-1-yl)ethyl)piperidin-1-yl)-2-fluorophenyl)piperidine-2,6-dione]",40.2,96.4,–
"CCc1cc(Nc2ncc(Br)c(Nc3ccc(C4CC4)c4c3N(S(C)(=O)=O)CC4)n2)c(OC)cc1N1CCC(N2CCN(CCc3cc(F)c(C4CCC(=O)NC4=O)c(F)c3)CC2)CC1 (stereo not drawn) [Example 193, 3-(4-(2-(4-(1-(4-((5-bromo-4-((4-cyclopropyl-1-(methylsulfonyl)indolin-7-yl)amino)pyrimidin-2-yl)amino)-2-ethyl-5-methoxyphenyl)piperidin-4-yl)piperazin-1-yl)ethyl)-2,6-difluorophenyl)piperidine-2,6-dione]",–,–,74
"CCc1cc(Nc2ncc(Br)c(Nc3ccc(C(F)(F)F)c4c3N(S(C)(=O)=O)CC4)n2)c(OC)cc1N1CCC(N2CCN(C(=O)C3CN(c4cc(F)c([C@H]5CCC(=O)NC5=O)c(F)c4)C3)CC2)CC1 [Example 196, (R)-3-(4-(3-(4-(1-(4-((5-bromo-4-((1-(methylsulfonyl)-4-(trifluoromethyl)indolin-7-yl)amino)pyrimidin-2-yl)amino)-2-ethyl-5-methoxyphenyl)piperidin-4-yl)piperazine-1-carbonyl)azetidin-1-yl)-2,6-difluorophenyl)piperidine-2,6-dione]",–,–,71

# The next lines start with the values.
DC50 [1] [nM],DC50 [2] [nM],DC50 [3] [nM],SMILES
–,–,65,"CCc1cc(Nc2ncc(Br)c(Nc3ccc(CC)c4c3N(S(C)(=O)=O)CC4)n2)c(OC)cc1N1CCC(N2CCN(CCc3cc(F)c(C4CCC(=O)NC4=O)c(F)c3)CC2)CC1 (stereo not drawn) [Example 192, 3-(4-(2-(4-(1-(4-((5-bromo-4-((4-ethyl-1-(methylsulfonyl)indolin-7-yl)amino)pyrimidin-2-yl)amino)-2-ethyl-5-methoxyphenyl)piperidin-4-yl)piperazin-1-yl)ethyl)-2,6-difluorophenyl)piperidine-2,6-dione]"
–,–,29,"CCc1cc(Nc2ncc(Br)c(Nc3ccc(F)c4c3N(S(C)(=O)=O)CC4)n2)c(OC)cc1N1CCC(N2CCN(C(=O)[C@@H]3CCN(c4cc(F)c([C@H]5CCC(=O)NC5=O)c(F)c4)C3)CC2)CC1 [Example 194, (R)-3-(4-((R)-3-(4-(1-(4-((5-bromo-4-((4-fluoro-1-(methylsulfonyl)indolin-7-yl)amino)pyrimidin-2-yl)amino)-2-ethyl-5-methoxyphenyl)piperidin-4-yl)piperazine-1-carbonyl)pyrrolidin-1-yl)-2,6-difluorophenyl)piperidine-2,6-dione]"
–,–,24,"CCc1cc(Nc2ncc(Br)c(Nc3ccc(F)c4c3N(S(C)(=O)=O)CC4)n2)c(OC)cc1N1CCC(N2CCN(CCc3cc(F)c([C@H]4CCC(=O)NC4=O)c(F)c3)CC2)CC1 [Example 195, (R)-3-(4-(2-(4-(1-(4-((5-bromo-4-((4-fluoro-1-(methylsulfonyl)indolin-7-yl)amino)pyrimidin-2-yl)amino)-2-ethyl-5-methoxyphenyl)piperidin-4-yl)piperazin-1-yl)ethyl)-2,6-difluorophenyl)piperidine-2,6-dione]"
